Assay results as given in ChEMBL document CHEMBL1133965, “Total synthesis of Calebin-A, preparation of its analogues, and their neuronal cell protectivity against beta-amyloid insult” (2001).
In brackets after ≈: the same amount, converted by molar mass.

Legend:
PC-12 [1] = assay: Evaluated for neuronal cell protectivity against beta-amyloid (25,35) insult towards PC12 rat pheochromocytoma cell; No protection; type: functional
IMR-32 [2] = assay: (§1) Evaluated for neuronal cell protectivity against beta-amyloid (25,35) insult towards IMR-32 human neuroblastoma cell; No protection; type: functional
PC-12 [3] = assay: Evaluated for neuronal cell protectivity against beta-amyloid (25,35) insult towards PC12 rat pheochromocytoma cell; type: functional; conditions: read-out: ED50 (the source's name)
IMR-32 [4] = assay: Evaluated for neuronal cell protectivity against beta-amyloid (25,35) insult towards IMR-32 human neuroblastoma cell; type: functional; conditions: read-out: ED50 (the source's name)
IMR-32 [5] = assay: as §1; type: functional, cell-based
PC-12 [6] = assay: Evaluated for neuronal cell protectivity against beta-amyloid (25,35) insult towards PC12 rat pheochromocytoma cell

Molecule	ED50 (PC-12 [1])	ED50 (IMR-32 [2])	other results
COc1cc(/C=C/C(=O)COC(=O)/C=C/c2ccc(OC(C)=O)cc2)ccc1O	No protection	No protection	–
COc1cc(/C=C/C(=O)COC(=O)/C=C/c2ccc3c(c2)OCO3)ccc1O	No protection	No protection	–
COc1cccc(/C=C/C(=O)OCC(=O)/C=C/c2ccc(O)c(OC)c2)c1	No protection	No protection	–
COc1cc(/C=C/C(=O)COC(=O)/C=C/c2ccc(O)c(OC)c2)ccc1O [CALEBI A]	–	–	EC50 (PC-12 [3]): 1 µg/mL (≈ 2.6 µM); EC50 (IMR-32 [4]): 1.4 µg/mL (≈ 3.64 µM)
COc1cc(/C=C/C(=O)COC(=O)/C=C/c2ccc(OC(C)=O)c(OC(C)=O)c2)ccc1O	No protection	–	ED50 (IMR-32 [5]): No protection
COc1cc(/C=C/C(=O)COC(=O)/C=C/c2ccc(C)cc2)ccc1O	No protection	No protection	–
COc1cc(/C=C/C(=O)COC(=O)/C=C/c2ccc(O)c(O)c2)ccc1O	–	–	EC50 (PC-12 [3]): 7.3 µg/mL (≈ 19.7 µM); EC50 (IMR-32 [4]): 7.9 µg/mL (≈ 21.3 µM)
COc1cc(/C=C/C(=O)COC(=O)/C=C/c2cccc(O)c2)ccc1O	–	–	EC50 (PC-12 [3]): 13.2 µg/mL (≈ 37.3 µM); EC50 (IMR-32 [4]): 15.8 µg/mL (≈ 44.6 µM)
COc1cc(/C=C/C(=O)CC(=O)/C=C/c2ccc(O)c(OC)c2)ccc1O [CURCUMIN]	–	–	EC50 (PC-12 [3]): 7.1 µg/mL (≈ 19.3 µM); EC50 (IMR-32 [4]): 7.4 µg/mL (≈ 20.1 µM)
COc1cc(/C=C/C(=O)COC(=O)/C=C/c2cccc(OC(C)=O)c2)ccc1O	No protection	No protection	–
COc1ccc(/C=C/C(=O)OCC(=O)/C=C/c2ccc(O)c(OC)c2)cc1	No protection	No protection	–
COc1cc(/C=C/C(=O)COC(=O)/C=C/c2ccc(Br)cc2)ccc1O	No protection	No protection	–
VITAMIN E	No protection	No protection	–
COc1cc(/C=C/C(=O)COC(=O)/C=C/c2ccc(Cl)cc2)ccc1O	No protection	No protection	–
COc1cc(/C=C/C(=O)COC(=O)/C=C/c2ccc(O)cc2)ccc1O	–	–	ED50 (PC-12 [6]): 0.7 µg/mL (≈ 1.98 µM); EC50 (IMR-32 [2]; read-out: ED50 (the source's name)): 1.2 µg/mL (≈ 3.39 µM)
COc1cc(/C=C/C(=O)COC(=O)/C=C/c2ccccc2)ccc1O	No protection	No protection	–
